Test results taken from paper PMC10669656, “ADMET and Solubility Analysis of New 5-Nitroisatine-Based Inhibitors of CDK2 Enzymes” (Biomedicines, 2023).
Values after ≈ are worked out from the molar mass of the structure shown. Values joined by “and” are separate entries in the source; they are usually repeats but may differ in a detail not shown here. Identical values can stand only once.

Key:
Assay type in all cases: physicochemical
[1] = Solubility in neat solvents, shake-flask with spectrophotometric determination; conditions: for solubility at 24 h: 25 °C, organic solvent or mixture, thermodynamic from solid
Protocol: (§1) The calibration curves for each derivative were obtained using successful dilutions of initial stock solutions followed by spectrophotometric measurements of the obtained solutions with decreasing concentration. The concentration ranges for the derivatives 1, 2, and 3 were 0.0081–0.0405 mg/mL, 0.0077–0.0385 mg/mL, and 0.0068–0.017 mg/mL, respectively. Methanol was used both as a solvent, as well as a reference for spectrophotometric measurements. […] The A360 spectrophotometer from AOE Instruments was used for the preparation of the calibration curves. […] Three calibration curves were prepared for each derivative and then averaged.
(§2) A multi-step procedure was employed in order to find the solubility of the studied derivatives in the selected solvents. First of all, the excess amount of the considered compound was added to test tubes containing either neat solvents or their mixtures with water in different proportions, thus forming binary solvents. Saturated solutions were obtained in this way, placed in a Shaker Incubator ES-20/60 from Biosan, and incubated for 24 h at 298.1 K. The temperature adjustment was possible with a 0.1-degree accuracy, and the variance within a 24 h cycle was 0.5 degrees. The samples were simultaneously mixed at 60 rev/min. After incubation, the samples were filtered with the help of plastic syringes equipped with PTFE filters with 0.22 µm pore size. The obtained filtrates were diluted with methanol in another set of test tubes. In order to determine the mole fractions of a solute in the solution, 1 mL of the filtered samples was weighed in 10 mL volumetric flasks using a RADWAG AS 110 R2.PLUS analytical balance. The samples diluted with methanol were measured spectrophotometrically using the same instrument as was used in the case of calibration curves. The spectra were recorded in the wavelength range of 190–500 nm, and the resolution was 1 nm. Methanol was used if further dilution of the sample was required, and it was also used as a reference for calibrating the spectrophotometer. The absorbance values at 315 nm, 321 nm, and 321 nm were taken into account for derivatives 1, 2, and 3, respectively. Based on the calibration curves, the concentration of the solute in the samples was determined together with its mole fraction. Three separate measurements were conducted, and the final values are the results of averaging them.

[2] = Solubility in NMP-water binary mixtures; conditions: for solubility at 24 h: thermodynamic from solid
Protocol: as §1, §2

[3] = Solubility in DMSO-water binary mixtures; conditions: for solubility at 24 h: 25 °C, thermodynamic from solid
Protocol: as §1, §2

[4] = neat γ-nonanoic lactone, 298.1 K

Compound `O=C1Nc2ccc([N+](=O)[O-])cc2C1=NNC(=O)c1ccccc1C(F)(F)F` [derivative 1, 2-trifluoromethyl-N′-[5-nitro-2-oxo-1,2-dihydro-3H-indol-3-ylidene]benzohydrazide] has a solubility at 24 h ([1]; neat DMF, 298.1 K) of 119 mg/mL (≈ 315 mM), a solubility at 24 h ([1]; neat DMP, 298.1 K) of 0.94 mg/mL (≈ 2.49 mM) and a solubility at 24 h ([1]; neat DMSO, 298.1 K) of 327 mg/mL (≈ 864 mM). For the same compound, the solubility at 24 h ([1]; neat NMP, 298.1 K) was 265 mg/mL (≈ 701 mM), the solubility at 24 h ([1]; neat acetone, 298.1 K) was 4.39 mg/mL (≈ 11.6 mM) and the solubility at 24 h ([1]; neat acetonitrile, 298.1 K) was 2.02 mg/mL (≈ 5.34 mM). For the same compound, the solubility at 24 h ([1]; neat cyrene, 298.1 K) was 1.62 mg/mL (≈ 4.28 mM), the solubility at 24 h ([1]; neat diglyme, 298.1 K) was 2.52 mg/mL (≈ 6.66 mM) and the solubility at 24 h ([1]; neat dioxane, 298.1 K) was 4.17 mg/mL (≈ 11 mM). The solubility at 24 h ([1]; neat ethyl lactate, 298.1 K) was 1.25 mg/mL (≈ 3.3 mM), the solubility at 24 h ([1]; neat methanol, 298.1 K) was 1.51 mg/mL (≈ 3.99 mM) and the solubility at 24 h ([1]; neat tetraglyme, 298.1 K) was 4.62 mg/mL (≈ 12.2 mM). For the same compound, the solubility at 24 h ([1]; neat triglyme, 298.1 K) was 0.95 mg/mL (≈ 2.51 mM), the solubility at 24 h ([1]; neat γ-heptalactone, 298.1 K) was 1.78 mg/mL (≈ 4.71 mM) and the solubility at 24 h [1, 4] was 1.16 mg/mL (≈ 3.07 mM). The solubility at 24 h ([1]; neat 1-butanol) was 0.47 mg/mL (≈ 1.24 mM), the solubility x ([1]; neat 1-butanol, 298.1 K) was 1.11 (0.04) × 10^−4 mole fraction and the solubility at 24 h ([1]; neat 1-propanol) was 0.61 mg/mL (≈ 1.61 mM). For the same compound, the solubility x ([1]; neat 1-propanol, 298.1 K) was 1.19 (0.05) × 10^−4 mole fraction, the solubility at 24 h ([1]; neat 4FM) was 7.22 mg/mL (≈ 19.1 mM) and the solubility x ([1]; neat 4FM, 298.1 K) was 1.88 (0.04) × 10^−3 mole fraction. For the same compound, the solubility x ([1]; neat DMF, 298.1 K) was 2.66 × 10^−2 mole fraction and 2.66 (0.55) × 10^−2 mole fraction, the solubility x ([1]; neat DMP, 298.1 K) was 2.96 (0.11) × 10^−4 mole fraction and the solubility x ([1]; neat DMSO, 298.1 K) was 7.70 × 10^−2 mole fraction and 7.70 (0.11) × 10^−2 mole fraction. The solubility x ([1]; neat NMP, 298.1 K) was 8.06 × 10^−2 mole fraction and 8.06 (0.25) × 10^−2 mole fraction, the solubility x ([1]; neat acetone, 298.1 K) was 8.38 (0.16) × 10^−4 mole fraction and the solubility x ([1]; neat acetonitrile, 298.1 K) was 2.76 (0.12) × 10^−4 mole fraction. The solubility x ([1]; neat cyrene, 298.1 K) was 4.37 (0.09) × 10^−4 mole fraction, the solubility x ([1]; neat diglyme, 298.1 K) was 9.43 (0.90) × 10^−4 mole fraction and the solubility x ([1]; neat dioxane, 298.1 K) was 9.21 (0.21) × 10^−4 mole fraction. The solubility at 24 h ([1]; neat ethanol) was 0.82 mg/mL (≈ 2.17 mM), the solubility x ([1]; neat ethanol, 298.1 K) was 1.26 (0.04) × 10^−4 mole fraction and the solubility x ([1]; neat ethyl lactate, 298.1 K) was 3.75 (0.10) × 10^−4 mole fraction. The solubility x ([1]; neat methanol, 298.1 K) was 1.60 (0.05) × 10^−4 mole fraction, the solubility x ([1]; neat triglyme, 298.1 K) was 4.48 (0.06) × 10^−4 mole fraction and the solubility x ([1]; neat γ-heptalactone, 298.1 K) was 5.92 (0.08) × 10^−4 mole fraction. For the same compound, the solubility x [1, 4] was 4.81 (0.06) × 10^−4 mole fraction, the solubility at 24 h ([1]; neat ε-caprolactone) was 1.6 mg/mL (≈ 4.23 mM) and the solubility x ([1]; neat ε-caprolactone, 298.1 K) was 4.42 (0.09) × 10^−4 mole fraction. It also gave a solubility at 24 h ([2]; NMP-water binary mixture, x*NMP 0.1, 25 °C, aqueous with cosolvent or surfactant or cyclodextrin, x*NMP 0.1, 298.1 K) of 56.6 mg/mL (≈ 150 mM), a solubility at 24 h ([2]; NMP-water binary mixture, x*NMP 0.2, 25 °C, aqueous with cosolvent or surfactant or cyclodextrin, x*NMP 0.2, 298.1 K) of 111 mg/mL (≈ 293 mM) and a solubility at 24 h ([2]; NMP-water binary mixture, x*NMP 0.3, 25 °C, aqueous with cosolvent or surfactant or cyclodextrin, x*NMP 0.3, 298.1 K) of 161 mg/mL (≈ 426 mM). It also gave a solubility at 24 h ([2]; NMP-water binary mixture, x*NMP 0.4, 25 °C, aqueous with cosolvent or surfactant or cyclodextrin, x*NMP 0.4, 298.1 K) of 205 mg/mL (≈ 542 mM), a solubility at 24 h ([2]; NMP-water binary mixture, x*NMP 0.7, 25 °C, aqueous with cosolvent or surfactant or cyclodextrin, x*NMP 0.7, 298.1 K) of 285 mg/mL (≈ 753 mM) and a solubility at 24 h ([2]; NMP-water binary mixture, x*NMP 0.8, 25 °C, aqueous with cosolvent or surfactant or cyclodextrin, x*NMP 0.8, 298.1 K) of 294 mg/mL (≈ 777 mM). It also gave a solubility at 24 h ([2]; NMP-water binary mixture, x*NMP 0.9, 25 °C, aqueous with cosolvent or surfactant or cyclodextrin, x*NMP 0.9, 298.1 K) of 282 mg/mL (≈ 746 mM), a solubility at 24 h ([2]; NMP-water binary solvent, 25 °C, aqueous with cosolvent or surfactant or cyclodextrin, x*NMP 0.5, 298.1 K) of 248 mg/mL (≈ 656 mM) and a solubility at 24 h ([2]; NMP-water binary solvent, 25 °C, aqueous with cosolvent or surfactant or cyclodextrin, x*NMP 0.6, 298.1 K) of 272 mg/mL (≈ 719 mM). For the same compound, the solubility at 24 h ([2]; NMP-water series, x*NMP 1.0, 25 °C, organic solvent or mixture, x*NMP 1.0, 298.1 K) was 265 mg/mL (≈ 701 mM), the solubility x ([2]; x*NMP 0.1, 298.1 K) was 3.86 (0.05) × 10^−3 mole fraction and the solubility x ([2]; x*NMP 0.2, 298.1 K) was 1.05 (0.01) × 10^−2 mole fraction. The solubility x ([2]; x*NMP 0.3, 298.1 K) was 1.98 (0.04) × 10^−2 mole fraction, the solubility x ([2]; x*NMP 0.4, 298.1 K) was 3.09 (0.04) × 10^−2 mole fraction and the solubility x ([2]; x*NMP 0.6, 298.1 K) was 5.77 (0.07) × 10^−2 mole fraction. For the same compound, the solubility x ([2]; x*NMP 0.7, 298.1 K) was 6.87 (0.11) × 10^−2 mole fraction, the solubility x ([2]; x*NMP 0.8, 298.1 K) was 7.76 (0.08) × 10^−2 mole fraction and the solubility x ([2]; x*NMP 0.9, 298.1 K) was 7.96 (0.10) × 10^−2 mole fraction. The solubility x ([2]; x*NMP 1.0, 298.1 K) was 8.06 (0.25) × 10^−2 mole fraction, the solubility at 24 h ([3]; DMSO-water binary mixture, aqueous with cosolvent or surfactant or cyclodextrin, x*DMSO 0.1, 298.1 K) was 88 mg/mL (≈ 233 mM) and the solubility at 24 h ([3]; DMSO-water binary mixture, aqueous with cosolvent or surfactant or cyclodextrin, x*DMSO 0.2, 298.1 K) was 179 mg/mL (≈ 473 mM). The solubility at 24 h ([3]; DMSO-water binary mixture, aqueous with cosolvent or surfactant or cyclodextrin, x*DMSO 0.3, 298.1 K) was 219 mg/mL (≈ 579 mM), the solubility at 24 h ([3]; DMSO-water binary mixture, aqueous with cosolvent or surfactant or cyclodextrin, x*DMSO 0.4, 298.1 K) was 261 mg/mL (≈ 690 mM) and the solubility at 24 h ([3]; DMSO-water binary mixture, aqueous with cosolvent or surfactant or cyclodextrin, x*DMSO 0.5, 298.1 K) was 305 mg/mL (≈ 806 mM). The solubility at 24 h ([3]; DMSO-water binary mixture, aqueous with cosolvent or surfactant or cyclodextrin, x*DMSO 0.6, 298.1 K) was 336 mg/mL (≈ 888 mM), the solubility at 24 h ([3]; DMSO-water binary mixture, aqueous with cosolvent or surfactant or cyclodextrin, x*DMSO 0.7, 298.1 K) was 356 mg/mL (≈ 941 mM) and the solubility at 24 h ([3]; DMSO-water binary mixture, aqueous with cosolvent or surfactant or cyclodextrin, x*DMSO 0.8, 298.1 K) was 363 mg/mL (≈ 960 mM). For the same compound, the solubility at 24 h ([3]; DMSO-water binary mixture, aqueous with cosolvent or surfactant or cyclodextrin, x*DMSO 0.9, 298.1 K) was 355 mg/mL (≈ 938 mM), the solubility at 24 h ([3]; DMSO-water series, organic solvent or mixture, x*DMSO 1.0, 298.1 K) was 327 mg/mL (≈ 864 mM) and the solubility x ([3]; x*DMSO 0.1, 298.1 K) was 5.27 (0.10) × 10^−3 mole fraction. The solubility x ([3]; x*DMSO 0.2, 298.1 K) was 1.47 (0.02) × 10^−2 mole fraction, the solubility x ([3]; x*DMSO 0.3, 298.1 K) was 2.25 (0.03) × 10^−2 mole fraction and the solubility x ([3]; x*DMSO 0.4, 298.1 K) was 3.25 (0.05) × 10^−2 mole fraction. For the same compound, the solubility x ([3]; x*DMSO 0.5, 298.1 K) was 4.46 (0.08) × 10^−2 mole fraction, the solubility x ([3]; x*DMSO 0.6, 298.1 K) was 5.69 (0.15) × 10^−2 mole fraction and the solubility x ([3]; x*DMSO 0.7, 298.1 K) was 6.72 (0.14) × 10^−2 mole fraction. For the same compound, the solubility x ([3]; x*DMSO 0.8, 298.1 K) was 7.60 (0.10) × 10^−2 mole fraction, the solubility x ([3]; x*DMSO 0.9, 298.1 K) was 8.00 (0.14) × 10^−2 mole fraction and the solubility x ([3]; x*DMSO 1.0, 298.1 K) was 7.70 (0.11) × 10^−2 mole fraction.
